Consider 195 substances from paper PMC7932537, “Quantitative profiling of protease specificity” (PLoS Computational Biology, 2021).

One assay concerns MMP-2. Put plainly: Substrate phage display with NGS: relative probability (RP) of P3-P1' tetramer clusters. To be noted: MMP2 - no binning; average relative probability (RP) of the P3-P1' tetramer; redundant tetramers have been averaged out. Format: biochemical, human.
With HMAL, the avg_RP is 5.2214. PLPW registered an avg_RP of 30.0861. On to AWNM, for which the avg_RP was found to be 2.0017. In the case of VEPL, the avg_RP amounted to 2.5219. On the same count and under the same terms, next, AWAL: 14.3616; PMNL: 32.5586; LARL: 21.3172. Still for that read-out and setting: the result for SYPL reads 1.464; that for HRSI, 0.1819. Same read-out and setting: next, YMHI: 0; PERL: 16.3826. For AGRL, the avg_RP came to 3.4801. VRNL showed an avg_RP of 29.2567.

For the substance VMKL, the avg_RP is given as 0.3599.

As for HMHM, the avg_RP amounted to 0. For AWHL, the avg_RP is listed as 5.5662.

For the substance AQEL, the avg_RP is 0.1876. For the substance PAHL, the avg_RP is on record as 34.5554.

PLNL displayed an avg_RP of 34.7054. Same read-out and setting: next, PNRL: 14.3701; LLHL: 16.5808; YRAL: 8.2547. GNFL came in with an avg_RP of 0.2435. Consider FATL, for which the avg_RP came out at 9.1497.

In turn, GQGL gave an avg_RP of 0.1555. In turn, YRFM showed an avg_RP of 0. VWGL displayed an avg_RP of 12.3495. Take NLAL: the avg_RP is 5.8865. In turn, VWKL came in with an avg_RP of 0.2836. Substance GLHL gave an avg_RP of 0.1267.

PLSW: the avg_RP worked out at 31.2944.

AFHL came in with an avg_RP of 8.795. Take HLNI: the avg_RP stood at 0.0853. Turning to AQHL, the avg_RP was found to be 16.6778. On to AHHL, for which the avg_RP amounted to 16.717.

Consider VMYL, for which the avg_RP is 5.0318. Substance TWSM showed an avg_RP of 0. Consider INQL, for which the avg_RP turned out to be 1.5518. As for LFHL, the avg_RP is given as 2.7376. Consider GRPL, for which the avg_RP was 5.2852.

Staying with this assay, now noted: MMP2 - no binning; average relative probability of the P3-P1' tetramer; redundant tetramers have been averaged out.
With PKQL, the avg_RP is on record as 26.0949. On to PAWM, for which the avg_RP turned out to be 34.3571. Regarding VWYL, the avg_RP is on record as 3.6672.

VIAL registered an avg_RP of 8.0877. In turn, VFAL had an avg_RP of 11.8827. As for ALNL, the avg_RP came to 17.2813.

For PFYL, the avg_RP is 17.7778. In the case of AYNM, the avg_RP was 10.8408.

In turn, PSML yielded an avg_RP of 33.0235. Still for that read-out and setting: next, TLNL: 2.7643; WGNM: 3.7232. LSHL yielded an avg_RP of 29.8814. Consider PLNW, for which the avg_RP is 28.8158.

For MMSL, the avg_RP worked out at 6.1978. As to PSNM, the avg_RP is recorded as 32.3748. As for VQLL, the avg_RP amounted to 8.0197. In turn, PNYI displayed an avg_RP of 6.6891. Consider PIML, for which the avg_RP stood at 15.4441. The same measure, in the same setting: next, FLHL: 0.8093; PLSQ: 26.5842. VMNL had an avg_RP of 18.6016. PSWL returned an avg_RP of 35.705. Still for that read-out and setting: the result for YANL reads 27.7486; that for VMSL, 14.6983. In turn, SGNL showed an avg_RP of 12.7361.

Take FWHL: the avg_RP is reported as 0. Turning to TWAL, the avg_RP is listed as 0.4366. The substance VFHM yielded an avg_RP of 5.168. The same measure, in the same setting: the result for GNRL reads 0.0463; that for QMSL, 0.2763; that for GWAL, 0.0916. IAHL: the avg_RP was 32.9345.

Turning to VAPL, the avg_RP stood at 30.036. QQNL yielded an avg_RP of 4.2466. For the substance IQTM, the avg_RP is 7.1082.

On to AHQL, for which the avg_RP came to 4.1004. With VWHV, the avg_RP amounted to 0. The same measure, in the same setting: next, LQNL: 27.5155; LSRL: 14.3329; SLPL: 8.6373. Turning to LRWW, the avg_RP worked out at 6.3129.

As to LDLL, the avg_RP was determined as 0.0715. On the same count and under the same terms, the result for PLAS reads 26.7589; that for LAHV, 11.7405.

For LQKL, the avg_RP turned out to be 13.1993. ISFM came in with an avg_RP of 23.3965. LTHL had an avg_RP of 4.2994. For FSHM, the avg_RP was 11.0227. In turn, PQSW yielded an avg_RP of 25.7009.

In turn, VWGI gave an avg_RP of 3.0103. Take SQSL: the avg_RP was determined as 5.003.

As to VMRM, the avg_RP was found to be 0.0611.

IHFL displayed an avg_RP of 4.5373.

YRGL registered an avg_RP of 5.4447.

For GNSL, the avg_RP was 0.2884. In the case of AQNL, the avg_RP came out at 19.4627. The same measure, in the same setting: the result for PVQL reads 26.094; that for GANL, 13.1428. Substance YGNM gave an avg_RP of 13.8836. Substance LRHL showed an avg_RP of 22.7972.

Substance VMLL returned an avg_RP of 0.4692. In turn, LGCL displayed an avg_RP of 12.7261. In turn, PLPQ had an avg_RP of 24.381.

LAHI came in with an avg_RP of 25.9365. Substance PVGL registered an avg_RP of 35.2016. YASM displayed an avg_RP of 24.1553. Take GLNL: the avg_RP stood at 0.5789. Same read-out and setting: next, VSEL: 24.0996; VRSL: 12.3051; MSSL: 27.4466.

As for FRSM, the avg_RP is recorded as 5.3885. Regarding AQSL, the avg_RP is recorded as 18.365.

Staying with this assay, now noted: MMP2 - no binning; average relative probability of the tetramer; redundant tetramers averaged out.
Consider PNPL, for which the avg_RP stood at 23.6266. PKLL: the avg_RP came to 15.3454. Regarding PIHM, the avg_RP came to 18.8886. On the same count and under the same terms, the result for PRNI reads 31.9621. PVWM came in with an avg_RP of 25.8126. Substance PRNT came in with an avg_RP of 2.5391. As to LSSL, the avg_RP is given as 24.2822.

IRML gave an avg_RP of 12.7446.

Substance ARAM displayed an avg_RP of 25.2992. As for AIPL, the avg_RP is on record as 24.8904. Regarding VRNV, the avg_RP amounted to 5.0406. As for VFSI, the avg_RP is 0.2237. PHHL came in with an avg_RP of 27.4742. In turn, PSWS showed an avg_RP of 13.1501. As for GRAM, the avg_RP is recorded as 2.5449. The substance IRYL displayed an avg_RP of 17.8741. In turn, PWSL displayed an avg_RP of 28.5684. The same measure, in the same setting: next, PKNQ: 13.2723. On to PWSV, for which the avg_RP was 0.3793. Turning to PEFL, the avg_RP is 12.0159. Take PYAM: the avg_RP came to 28.0901. The substance VFEL had an avg_RP of 0.8652. In turn, PWAW came in with an avg_RP of 10.3227.

The substance PVFL came in with an avg_RP of 21.7568.

As to PRSM, the avg_RP is on record as 32.6673. In the case of PMFL, the avg_RP was found to be 18.5721.

For the substance TRWY, the avg_RP is reported as 6.7229. On the same count and under the same terms, next, IGEI: 19.2988; PSAM: 32.7825; ARPL: 27.8706.

Substance PRFI returned an avg_RP of 22.3274. In turn, PFSN returned an avg_RP of 0.4602. On the same count and under the same terms, the result for ARLL reads 1.104. Take SYNL: the avg_RP is listed as 6.0933. In turn, PLSY gave an avg_RP of 31.2477. The substance PYNL showed an avg_RP of 30.8263. As for VRGV, the avg_RP turned out to be 2.6159. Substance PYHL gave an avg_RP of 27.2418. Turning to MSHL, the avg_RP is on record as 24.6165. For the substance PNFL, the avg_RP is listed as 15.743. For the substance SLAL, the avg_RP was 6.0193.

In the case of VWNL, the avg_RP was 14.4124.

For PLNS, the avg_RP was determined as 18.9358. On the same count and under the same terms, the result for PLGM reads 34.1118.

As to PFML, the avg_RP turned out to be 19.624. PSTL: the avg_RP worked out at 30.1803. GSGL came in with an avg_RP of 1.9698. As to PSAQ, the avg_RP was 28.0379. PFLL showed an avg_RP of 9.0855. In turn, PVAM returned an avg_RP of 31.7171.

In the case of VRAL, the avg_RP was 30.4312. Take VRAV: the avg_RP came to 10.114.

With IATL, the avg_RP is given as 24.2778. IALL yielded an avg_RP of 16.3586. Regarding MNSL, the avg_RP turned out to be 18.7113. The same measure, in the same setting: the result for FRHL reads 3.942. For PGLL, the avg_RP came to 24.9611. As to ARGL, the avg_RP is given as 25.9476. For the substance ARKL, the avg_RP is reported as 0. Regarding VYNL, the avg_RP is 19.1818. In turn, PRGM registered an avg_RP of 34.3819.

On to SHGL, for which the avg_RP was determined as 0.2009.

For the substance PMGL, the avg_RP was 34.7865. PRNV returned an avg_RP of 26.6015. The substance PNAF showed an avg_RP of 16.8865. PESL yielded an avg_RP of 26.0767. Consider VRDL, for which the avg_RP is reported as 21.7219. Substance PWFM registered an avg_RP of 3.6842. Regarding WRAL, the avg_RP came out at 22.4074. The substance AYSL yielded an avg_RP of 18.7071. The substance YASL gave an avg_RP of 26.9916. For MGHL, the avg_RP amounted to 26.7019. VEML registered an avg_RP of 2.1238. The substance VKWL gave an avg_RP of 19.0036. MSYL came in with an avg_RP of 18.2293. AMGL displayed an avg_RP of 23.7576.

For VRMM, the avg_RP stood at 13.0027. VRLL had an avg_RP of 4.002.

In the case of FSHL, the avg_RP is on record as 16.5216.

Still in this assay, the particulars now being: tetramer clusters unique to the MMP-2 selectome, MMP-2 RP.
In turn, LGEL [P3-P1' tetramer cluster] yielded a relative_probability of 29.44. On the same count and under the same terms, the result for LANI [P3-P1' tetramer cluster] reads 29.81.

Still in this assay, the particulars now being: tetramer probability in MMP2 set / naive library; 200 nM protease, 2 h, 37°C.
On to PSNL [P3-P1' tetramer cluster], for which the “relative probability (RP)” value is 36.5166.

The same assay, now with this note: tetramer projected onto MMP-2 cleavage sites determined by Prudova et al. (2010).
In the case of PRNL [P3-P1' tetramer cluster], the “relative probability (RP)” value amounted to 35.13.
